In the test the test system is LFS cells. Kind of test: poly (I:C) stimulation of LFS cells, STAT1α and IFNβ gene expression. In kind it is cell-based, human. The settings on record: poly (I:C) treatment.

Data on one substance can be found in US20050250137A1, “Molecular targets of cancer and aging” (priority 2002, published 2005).

Turning to poly (I:C), the “STAT1α and IFNβ gene expression” value is “induced” (MDAH041-PC); “no induction” (MDAH087-1); “no induction” (MDAH087-10); “induced” (MDAH087-N); “induced” (MDAH087-PC); “induced” (immortal MDAH041).
